How the values were obtained:
[1] = tested on: LPS-stimulated BMDM; assay: Pro-inflammatory cytokine levels by ELISA in LPS-stimulated BMDM; assay type: cell-based, murine; conditions: LPS 100 ng/mL, 10 μM NAD(H) equivalent, 12 h
Excerpt: Measurement of inflammation related cytokine levels. […] Twelve hours after the treatment, the cell culture media were collected to analyze the cytokine production by ELISA kits supplied by R&D Systems according to the manufacturer's instructions. Data were collected by monitoring the difference between the absorbance at 450 nm and 570 nm using the Microplate Reader.

[2] = tested on: CLP-induced sepsis with P. aeruginosa secondary infection; assay: Cecal ligation and puncture (CLP) and P. aeruginosa secondary infection model; assay type: in vivo, mice
Excerpt: Cecal ligation and puncture (CLP) and P. aeruginosa secondary infection model. Mice were anesthetized with isoflurane. Thereafter, the abdominal cavity was opened with a midline incision to expose the cecum. The distal 50% of the cecum was ligated with a 6-0 silk suture and perforated with a 19-gauge needle twice. Subsequently, a small amount of feces was squeezed out and spread around the cecum. The cecum was relocated into the peritoneal cavity, and the laparotomy site was closed, followed by subcutaneous injection of 1 mL resuscitative prewarmed sterile saline (Dawulieti, J. et al. Treatment of severe sepsis with nanoparticulate cell-free DNA scavengers. Science advances 6, eaay7148 (2020)). This level of injury was utilized to create a prolonged infection that impaired immune system and induced approximate 30% mortality. Two injections of free NAD^+ (20 mg/kg per injection), LP-CaP, or NAD^+-LP-CaP (an equivalent dose of NAD^+20 mg/kg per injection) were given through tail vein 6 h and 24 h after the surgery. […] Mice survival and body weight were recorded over time and presented using Kaplan—Meier curves (n=14). […] The CLP mice were monitored twice daily and their conditions were evaluated using a sepsis scoring sheet. […]

In the case of `NC(=O)C1=CN([C@@H]2O[C@H](COP(=O)([O-])OP(=O)([O-])OC[C@H]3O[C@@H](n4cnc5c(N)ncnc54)[C@H](O)[C@@H]3O)[C@@H](O)[C@H]2O)C=CC1.[Na+].[Na+]` [NADH, β-Nicotinamide adenine dinucleotide, reduced disodium salt], the “production of IL-6” value [1] is reported as “did not affect” and the “production of TNF-α” value [1] is reported as “did not affect”.
For `NC(=O)C1=CN([C@@H]2O[C@H](COP(=O)(O)OP(=O)(O)OC[C@H]3O[C@@H](n4cnc5c(N)ncnc54)[C@H](O)[C@@H]3O)[C@@H](O)[C@H]2O)C=CC1` [free NAD^+, β-Nicotinamide adenine dinucleotide], the “production of IL-6” value [1] was “did not affect”, the “production of TNF-α” value [1] was “did not affect” and the survival rate [2] was “did not improve the survival rate”.
